Assays:
Format in all cases: cell-based
[1] = tested on: panel of 240 cell lines composed of various cancers; experiment: GI50 versus PHLDA1/PIK3C2B expression in a panel of 240 cell lines (OncoPanel, Ricerca Biosciences); settings: panel of 240 cell lines of various cancers
Excerpt: It was also examined whether the expression level of PHLDA1 or PIK3C2B has a correlation with the sensitivity to PI3K/AKT/mTOR inhibitors in a panel of 240 cell lines (OncoPanel™, Ricerca Biosciences) composed of various cancers such as lung cancer, kidney cancer, liver cancer, pancreatic cancer, large bowel cancer, bladder cancer, breast cancer, head and neck cancer, prostate cancer, skin cancer, blood cancer, and malignant lymphoma.

[2] = tested on: human ovarian cancer cell line OVCAR-3; experiment: Cytotoxicity after PIK3C2B gene knockdown, OVCAR-3; settings: relative cell count after three days, FIG. 3
[3] = tested on: human breast cancer cell line HCC1187; experiment: Cytotoxicity after PIK3C2B gene knockdown, HCC1187; settings: relative cell count after three days, FIG. 3
[4] = tested on: 37 cell lines from human breast cancer; experiment: Cytotoxicity assay (CellTiter-Glo, GI50) in 37 human breast cancer cell lines, related to PHLDA1/PIK3C2B expression, PIK3CA mutation, PTEN deletion
Method: A cytotoxicity assay was conducted as described below using 37 cell lines from human breast cancer (AU565, BT20, BT474, BT549, CAMA-1, DU4475, HCC1187, HCC1419, HCC1428, HCC1500, HCC1569, HCC1599, HCC1806, HCC1937, HCC1954, HCC202, HCC2218, HCC38, HCC70, MDA-MB-157, MDA-MB-175, MDA-MB-231, MDA-MB-361, MDA-MB-415, MDA-MB-436, MDA-MB-453, MDA-MB-468, UACC-812, and UACC-893 (all obtained from American Type Culture Collection (ATCC); MCF-7, SK-BR-3, T47D, and ZR-75-1 (all obtained from Sumitomo Dainippon Pharma Co., Ltd.); KPL-1, KPL-3C, and KPL-4 (provided by Dr. Kurebayashi at Kawasaki Medical School)). Each cell line was seeded into a 96-well flat-bottom microplate in an amount of 150 μL, and cultured in an incubator containing 5% carbon dioxide gas at 37° C. for one day. PI3K/AKT/mTOR inhibitors (AKT inhibitor: Compound-I, MK-2206, PI3K-mTOR dual inhibitor: BEZ235, PI3K inhibitor: GDC-0941, mTOR inhibitor: sirolimus) diluted stepwise with dimethylsulfoxide, paclitaxel diluted stepwise with dimethylsulfoxide, and dimethylsulfoxide were individually added to respective media for the cell lines. 50 μL of each of the media was added to the wells of the aforementioned 96-well flat-bottom microplate so that the final concentration of each drug became 10,000, 3,000, 1,000, 300, 100, 30, 3, and 1 nM. A separately prepared 96-well flat-bottom microplate in which each cell line was cultured for one day was allowed to stand at room temperature for 30 minutes, and 50 μL of the supernatant was removed from each well to leave 100 μL of the cell culture solution. […] The microplate was allowed to stand in a dark place for 10 minutes, and then the luminescence intensity of live cells of each well to which the drug were added was measured using a microplate reader (PerkinElmer, ARVOsx). […] The microplate was allowed to stand in a dark place for 10 minutes, and then the luminescence intensity of live cells of each well was measured using a microplate reader. […]
Subsequently, the expression level of PHLDA1 and PIK3C2B in the 37 cell lines from human breast cancer was measured. […]

[5] = 37 human breast cancer cell lines, 3 days drug exposure, FIG. 1

Cn1c(=O)n(-c2ccc(C(C)(C)C#N)cc2)c2c3cc(-c4cnc5ccccc5c4)ccc3ncc21 [BEZ235, dactolisib]
Correlation between logarithm of GI50 and logarithm of expression level of PHLDA1 [1]: significant correlation
Correlation between logarithm of GI50 and logarithm of expression level of PIK3C2B [1]: significant correlation

CC1(O)CC(N)(c2ccc(-c3nc4n(c3-c3ccccc3)COc3ccncc3-4)cc2)C1 (stereo not drawn) [Compound-I, trans-3-amino-1-methyl-3-(4-(3-phenyl-5H-imidazo[1,2-c]pyrido[3,4-e][1,3]oxazin-2-yl)phenyl)cyclobutanol]
Correlation between logarithm of GI50 and logarithm of expression level of PHLDA1 [1]: significant correlation
Correlation between logarithm of GI50 and logarithm of expression level of PIK3C2B [1]: significant correlation
Change in sensitivity to drug caused by PIK3C2B gene knockdown [2]: decrease in sensitivity
Change in sensitivity to drug caused by PIK3C2B gene knockdown [3]: decrease in sensitivity
Correlation of PTEN deletion with sensitivity (GI50) ([4]; 36 cell lines, PTEN deletion in 8 cell lines, FIG. 4): did not show a correlation

CS(=O)(=O)N1CCN(Cc2cc3nc(-c4cccc5[nH]ncc45)nc(N4CCOCC4)c3s2)CC1 [GDC-0941, pictilisib]
Correlation between logarithm of GI50 and logarithm of expression level of PHLDA1 [1]: significant correlation
Correlation between logarithm of GI50 and logarithm of expression level of PIK3C2B [1]: significant correlation
Change in sensitivity to drug caused by PIK3C2B gene knockdown [2]: decrease in sensitivity
Change in sensitivity to drug caused by PIK3C2B gene knockdown [3]: decrease in sensitivity

NC1(c2ccc(-c3nc4ccn5c(=O)[nH]nc5c4cc3-c3ccccc3)cc2)CCC1 [MK-2206]
Correlation between logarithm of GI50 and logarithm of expression level of PHLDA1 [1]: significant correlation
Correlation between logarithm of GI50 and logarithm of expression level of PIK3C2B [1]: significant correlation

CC(=O)O[C@H]1C(=O)[C@@]2(C)[C@H]([C@H](OC(=O)c3ccccc3)[C@]3(O)C[C@H](OC(=O)[C@H](O)[C@@H](NC(=O)c4ccccc4)c4ccccc4)C(C)=C1C3(C)C)[C@]1(OC(C)=O)CO[C@@H]1C[C@@H]2O [paclitaxel]
Change in sensitivity to drug caused by PIK3C2B gene knockdown [2]: almost no change
Change in sensitivity to drug caused by PIK3C2B gene knockdown [3]: almost no change
Pearson correlation between logarithm of GI50 and logarithm of expression level of PHLDA1 [4, 5]: did not show a correlation
Pearson correlation between logarithm of GI50 and logarithm of expression level of PIK3C2B [4, 5]: did not show a correlation
